# Test results: patent US6506580B1, “Splice variants for human 5-HT4 serotonin receptor and their applications, in particular for screening” (Institut National de la Sante et de la Recherche Medicale …, priority 1997, dated 2003)
# How the values were obtained:
# [1] = tested on: cells expressing the isoforms of the receptor 5-HT4; test: cAMP formation in transiently transfected COS-7 cells, statement for all isoforms together; format: cell-based, human; settings: preincubation with 1 μM prior to 5-HT, COS-7 cells expressing the isoforms
# Procedure: The entire coding region of the cDNAs of 5-HT4(a), 5-HT4(b), 5-HT4(c) and 5-T4(d) was subcloned into a mammalian expression vector pRC/CMV (Invitrogen, Carlsbad, Calif.). The transfections were carried out using polyethyleneimine (PEI) as described in Boussif et al. (1995). The cells were transfected using a mixture of DNA and of PEI in a ratio of 20 μmol of PEI/mg of DNA in 0.9% NaCl. […] The cells transfected with the receptor 5-HT4 cDNA constructs were compared with the “blank”-transfected cells, which were exposed to the unmodified pRC/CMV plasmid. […] The reaction was stopped by aspiration of the medium and addition of 500 μl of ice-cold ethanol. After one hour at room temperature, the cells were scraped, and everything was collected and freeze-dried. The pellet was resuspended in 350 μl of PBS and centrifuged for 5 min at 300 g. The cAMP was quantified in the supernatant using a radioimmunological assay (E.R.I.A. assay kit from Pasteur Diagnostics 79830). Student's t tests were carried out using the program Quick TEst.
# [2] = target: receptor 5-HT4(c) (Homo sapiens, UniProt Q13639); test: cAMP formation in transiently transfected COS-7 cells; format: cell-based; design: The entire coding region of the cDNAs of 5-HT4(a), 5-HT4(b), 5-HT4(c) and 5-T4(d) was subcloned; expressed in transfected cells; host or cells: COS-7 cells, transient, pRC/CMV vector; cDNA amplified from human brain and ileum RNA; settings: for decrease of the basal cAMP values: 1 μM
# receptor 5-HT4(c), sequence (Q13639 1-380 isoform Q13639-4): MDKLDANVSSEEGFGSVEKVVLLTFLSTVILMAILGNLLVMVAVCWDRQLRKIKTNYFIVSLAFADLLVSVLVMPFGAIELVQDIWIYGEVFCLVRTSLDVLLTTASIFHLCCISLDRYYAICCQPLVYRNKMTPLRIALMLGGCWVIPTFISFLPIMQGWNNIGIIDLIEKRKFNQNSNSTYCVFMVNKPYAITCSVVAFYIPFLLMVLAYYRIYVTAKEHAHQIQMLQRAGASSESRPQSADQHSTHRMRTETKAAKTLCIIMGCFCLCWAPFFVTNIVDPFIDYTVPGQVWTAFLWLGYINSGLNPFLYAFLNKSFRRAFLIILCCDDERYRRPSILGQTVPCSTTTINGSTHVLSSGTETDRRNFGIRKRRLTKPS
# Procedure: (§1) The entire coding region of the cDNAs of 5-HT4(a), 5-HT4(b), 5-HT4(c) and 5-T4(d) was subcloned into a mammalian expression vector pRC/CMV (Invitrogen, Carlsbad, Calif.). The transfections were carried out using polyethyleneimine (PEI) as described in Boussif et al. (1995). The cells were transfected using a mixture of DNA and of PEI in a ratio of 20 μmol of PEI/mg of DNA in 0.9% NaCl. For the radioligand binding assays, the COS-7 cells were seeded into culture flasks of 1.5×10^4 mm^2 one day before the transfection, at a density of 1×10^7 cells/flask, incubated for six hours with plasmid DNA (150 μg/flask) and collected 48 hours after transfection. For the measurement of cAMP formation, the COS-7 cells were seeded onto twelve-well plates one day before transfection, at a density of 5×10^5 cells/well, incubated for six hours with plasmid DNA (4 to 8 μg/well according to the experiments) and assayed 24 hours after the transfection. The cells transfected with the receptor 5-HT4 cDNA constructs were compared with the “blank”-transfected cells, which were exposed to the unmodified pRC/CMV plasmid.
# (§2) To measure intracellular cAMP accumulation, the transiently transfected COS-7 cells were incubated, 24 hours after transfection, in Dulbecco's modified Eagle medium (DMEM) containing 5 mM theophylline, 10 mM HEPES and 10 μM pargyline for 15 minutes at 37° C., in the presence of 5% CO2. […] The reaction was stopped by aspiration of the medium and addition of 500 μl of ice-cold ethanol. After one hour at room temperature, the cells were scraped, and everything was collected and freeze-dried. The pellet was resuspended in 350 μl of PBS and centrifuged for 5 min at 300 g. The cAMP was quantified in the supernatant using a radioimmunological assay (E.R.I.A. assay kit from Pasteur Diagnostics 79830). Student's t tests were carried out using the program Quick TEst.
# ML10375 is capable of reducing the cAMP levels in the cells expressing the 5-HT4(c) and 5-HT4(d) isoforms in the absence of any stimulation of the receptor by 5-HT4 agonists. To test the hypothesis that ML10375 may constitute a reverse agonist for the human receptor 5-HT4, the 5-HT4(c) isoform was overexpressed in COS-7 cells in order to increase the frequency of the spontaneously active state of the receptor. The COS-7 cells were transfected with 4 to 8 μg of plasmid DNA per well in order to obtain an increase in the expression levels of the receptor 5-HT4(c). […] (FIG. 6B).
# [3] = target: receptor 5-HT4(d) (Homo sapiens, UniProt Q13639); test: as above; format: cell-based; design: The entire coding region of the cDNAs of 5-HT4(a), 5-HT4(b), 5-HT4(c) and 5-T4(d) was subcloned; expressed in transfected cells; host or cells: COS-7 cells, transient, pRC/CMV vector; cDNA amplified from human brain and ileum RNA; settings: COS-7, 1 μM, no agonist
# receptor 5-HT4(d), sequence (Q13639 1-360 isoform Q13639-3): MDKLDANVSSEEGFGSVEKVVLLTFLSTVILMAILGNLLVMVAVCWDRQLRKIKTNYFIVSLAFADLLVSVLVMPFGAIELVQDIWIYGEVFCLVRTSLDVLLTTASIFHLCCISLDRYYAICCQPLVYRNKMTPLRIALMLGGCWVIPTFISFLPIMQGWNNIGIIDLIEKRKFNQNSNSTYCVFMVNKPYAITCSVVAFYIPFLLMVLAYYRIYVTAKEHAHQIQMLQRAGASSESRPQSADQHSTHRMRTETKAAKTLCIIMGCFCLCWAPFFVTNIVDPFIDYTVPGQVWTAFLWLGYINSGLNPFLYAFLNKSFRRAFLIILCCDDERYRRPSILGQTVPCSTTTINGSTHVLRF
# Procedure: The entire coding region of the cDNAs of 5-HT4(a), 5-HT4(b), 5-HT4(c) and 5-T4(d) was subcloned into a mammalian expression vector pRC/CMV (Invitrogen, Carlsbad, Calif.). The transfections were carried out using polyethyleneimine (PEI) as described in Boussif et al. (1995). The cells were transfected using a mixture of DNA and of PEI in a ratio of 20 μmol of PEI/mg of DNA in 0.9% NaCl. For the radioligand binding assays, the COS-7 cells were seeded into culture flasks of 1.5×10^4 mm^2 one day before the transfection, at a density of 1×10^7 cells/flask, incubated for six hours with plasmid DNA (150 μg/flask) and collected 48 hours after transfection. For the measurement of cAMP formation, the COS-7 cells were seeded onto twelve-well plates one day before transfection, at a density of 5×10^5 cells/well, incubated for six hours with plasmid DNA (4 to 8 μg/well according to the experiments) and assayed 24 hours after the transfection. […]
# To measure intracellular cAMP accumulation, the transiently transfected COS-7 cells were incubated, 24 hours after transfection, in Dulbecco's modified Eagle medium (DMEM) containing 5 mM theophylline, 10 mM HEPES and 10 μM pargyline for 15 minutes at 37° C., in the presence of 5% CO2. […] The cAMP was quantified in the supernatant using a radioimmunological assay (E.R.I.A. assay kit from Pasteur Diagnostics 79830). […]
# [4] = target: T1, receptor 5-HT4(a) (Homo sapiens, UniProt Q13639); test: as above; format: cell-based; settings: COS-7, 1 μM, no agonist
# T1 construct: The entire coding region of the cDNAs of 5-HT4(a), 5-HT4(b), 5-HT4(c) and 5-T4(d) was subcloned; expressed in transfected cells; host or cells: COS-7 cells, transient, pRC/CMV vector
# T1 sequence (Q13639 1-387 isoform Q13639-2): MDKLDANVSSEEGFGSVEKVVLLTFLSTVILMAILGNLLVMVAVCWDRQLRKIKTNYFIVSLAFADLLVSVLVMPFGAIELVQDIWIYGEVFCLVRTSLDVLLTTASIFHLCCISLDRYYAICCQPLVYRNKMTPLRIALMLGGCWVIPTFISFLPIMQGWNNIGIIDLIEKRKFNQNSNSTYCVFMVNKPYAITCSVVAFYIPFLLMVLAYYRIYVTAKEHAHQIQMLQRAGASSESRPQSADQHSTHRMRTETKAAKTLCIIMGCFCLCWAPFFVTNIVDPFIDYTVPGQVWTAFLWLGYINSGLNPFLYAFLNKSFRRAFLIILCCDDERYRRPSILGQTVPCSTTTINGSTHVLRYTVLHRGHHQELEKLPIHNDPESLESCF
# Procedure: as §1, §2
# [5] = target: T2, receptor 5-HT4(b) (Homo sapiens, UniProt Q13639); test: as above; format: cell-based; settings: COS-7, 1 μM, no agonist
# T2 construct: The entire coding region of the cDNAs of 5-HT4(a), 5-HT4(b), 5-HT4(c) and 5-T4(d) was subcloned; expressed in transfected cells; host or cells: COS-7 cells, transient, pRC/CMV vector; cDNA amplified from human brain and ileum RNA
# T2 sequence (Q13639 whole entry): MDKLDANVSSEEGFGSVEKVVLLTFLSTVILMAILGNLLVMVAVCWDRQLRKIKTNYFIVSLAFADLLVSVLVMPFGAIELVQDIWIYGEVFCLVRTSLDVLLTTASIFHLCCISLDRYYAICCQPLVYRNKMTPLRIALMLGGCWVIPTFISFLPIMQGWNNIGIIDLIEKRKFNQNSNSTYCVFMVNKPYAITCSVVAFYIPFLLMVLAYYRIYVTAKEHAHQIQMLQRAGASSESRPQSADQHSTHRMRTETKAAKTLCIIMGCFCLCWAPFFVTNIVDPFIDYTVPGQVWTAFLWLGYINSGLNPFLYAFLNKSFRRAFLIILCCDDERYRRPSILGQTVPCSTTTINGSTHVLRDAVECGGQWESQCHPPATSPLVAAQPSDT
# Procedure: as §1, §2
smiles,measurement,setting,value
"COc1cc(N)c(Cl)cc1C(=O)OCCN1C[C@H](C)C[C@H](C)C1 [ML10375, 2-(cis-3,5-dimethyl-piperidino)ethyl 4-amino-5-chloro-2-methoxybenzoate]",antagonism of the capacity of 5-HT (1 μM) to increase basal cAMP levels,[1],antagonizes
same,antagonism of the stimulatory effect of 5-HT (1 μM) on the basal cAMP,"[2]; 4 μg of plasmid DNA, preincubation with 1 μM",antagonized
same,effect of PTX treatment on the ML10375-induced reduction in basal cAMP,"[2]; 6 μg of plasmid DNA, ML10375 1 μM, PTX 100 ng/ml, 16-hour preincubation",did not significantly modify
same,decrease in the basal cAMP level in the presence of 1 μM 5-HT,"[2]; 8 μg of plasmid DNA, preincubation with 1 μM",47%
same,reduction of the basal cAMP levels,"[2]; COS-7, 1 μM, no agonist",21%
same,decrease of the basal cAMP values,[2]; COS-7 transfected with 4 μg of plasmid DNA,24%
same,decrease of the basal cAMP values,[2]; COS-7 transfected with 8 μg of plasmid DNA,62%
same,reduction of the basal cAMP levels,[3],24%
same,effect on the basal cAMP levels,[4],no significant effect
same,effect on the basal cAMP levels,[5],no significant effect
